Reference: patent publication US20230355646A1, “AUTOPHAGY ACTIVATOR” (Resonac Corporation, priority 2020, published 2023)

Tested on: ATG5 gene
Test: ATG5 gene expression promoting effect in human senescent fibroblasts (quantitative real-time PCR)
Type: cell-based
Procedure: Normal human fibroblasts (NB1RGB, RIKEN BRC Cell Bank) were cultured until confluent in D-MEM medium (manufactured by Sigma-Aldrich) to which 10% fetal bovine serum (manufactured by MP Biomedicals) was added. Thereafter, the cells were treated with 250 μM aqueous hydrogen peroxide for 2 hours, and cultured for 24 hours in D-MEM medium to which fresh 10% fetal bovine serum was added. The treatment with aqueous hydrogen peroxide and the cell culture operation were repeated three times, and the obtained fibroblasts were used as senescent fibroblasts.
The prepared senescent fibroblasts were prepared at a seeding density of 10000 cells/cm^2 and cultured for 24 hours in D-MEM medium (manufactured by Sigma-Aldrich) to which 10% fetal bovine serum (manufactured by MP Biomedicals) was added. […]
Then, using Nucleospin (registered trademark) RNA kit (manufactured by Takara Bio Inc.), RNA was extracted from senescent fibroblasts or normal human fibroblasts in each example, and cDNA was synthesized from the obtained RNA. Next, using this cDNA as a template, by quantitative real-time PCR, the expression level of each gene was quantified using primers (manufactured by Takara Bio Inc.) specific to the LC3 gene, ATG5 gene, and ATG7 gene, respectively. […]

COc1ccc([C@@H]2CC(=O)c3c(O)cc(O[C@@H]4O[C@H](CO[C@@H]5O[C@@H](C)[C@H](O)[C@@H](O)[C@H]5O)[C@@H](O)[C@H](O)[C@H]4O)cc3O2)cc1O [Comparative Example 2, hesperidin]
Relative gene expression level ATG5 (10^−2% (V/V) methyl hesperidin or hesperidin, additional ingredient where in the example, 24 hours, Comparative Example 1 (DMSO) = 1.00): 0.93
expression level of the ATG5 gene (in words) (compared to DMSO only of Comparative Example 1): more decreased
